In patent US7666890B2, “Synthesis and herbicidal activity of 1- (2-substituted benzo[d]thiazol-5-yl)-1H-1,2,4-triazol-5(4H)-one derivatives” (Huazhong Normal University, priority 2007, dated 2010):

Legend:
Test in all cases: Test of herbicidal activities (greenhouse pot method)
Type in all cases: in vivo
Conditions in all cases: single dose 300 g ai./h, treated before/after germination, 15 days later, greenhouse pot
Brassica juncea = system: Brassica juncea
Procedure, shortened: (§1)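 Weeds were sown in soil-filled pots at 15–30 °C and treated once by spray tower at 300 g ai./h, either before emergence or post-emergence at the 2-leaf stage, in three replicates with an untreated control. Symptoms were scored 15 days later into five classes from A (≥90%) to E (<50%).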

Echinochloa crusgalli = system: Echinochloa crusgalli
Procedure, shortened: as §1

Digiatria sanguinalis = system: Digiatria sanguinalis
Procedure, shortened: as §1

Chenopodium album = system: Chenopodium album
Procedure, shortened: as §1

Amaranthus retroflexus = system: Amaranthus retroflexus
Procedure, shortened: as §1

Setaria viridis = system: Setaria viridis
Procedure, shortened: as §1

SMILES	Herbicidal activity Brassica juncea (inhibition level) (Brassica juncea)	Herbicidal activity Echinochloa crusgalli (inhibition level) (Echinochloa crusgalli)	Herbicidal activity Digiatria sanguinalis (inhibition level) (Digiatria sanguinalis)	Herbicidal activity Chenopodium album (inhibition level) (Chenopodium album)	Herbicidal activity Amaranthus retroflexus (inhibition level) (Amaranthus retroflexus)	Herbicidal activity Setaria viridis (inhibition level) (Setaria viridis)
CCOC(=O)C[S+]([O-])c1nc2cc(-n3nc(C)n(C(F)F)c3=O)c(Br)cc2s1 (stereo not drawn) [Compound 111]	B (80 ≦ B < 90%)	A (90 ≦ A ≦ 100%)	C (60 ≦ C < 80%)	E (E < 50%)	A (90 ≦ A ≦ 100%)	C (60 ≦ C < 80%)
CCCCCC[S+]([O-])c1nc2cc(-n3nc(C)n(C(F)F)c3=O)c(F)cc2s1 (stereo not drawn) [Compound 112]	C (60 ≦ C < 80%)	B (80 ≦ B < 90%)	A (90 ≦ A ≦ 100%)	B (80 ≦ B < 90%)	B (80 ≦ B < 90%)	B (80 ≦ B < 90%)
CC[S+]([O-])c1nc2cc(-n3nc(C)n(C(F)F)c3=O)c(F)cc2s1 (stereo not drawn) [Compound 113]	A (90 ≦ A ≦ 100%)	B (80 ≦ B < 90%)	C (60 ≦ C < 80%)	D (50 ≦ D < 60%)	B (80 ≦ B < 90%)	C (60 ≦ C < 80%)
CCCCCC[S+]([O-])c1nc2cc(-n3nc(C)n(C(F)F)c3=O)c(Cl)cc2s1 (stereo not drawn) [Compound 114]	A (90 ≦ A ≦ 100%)	B (80 ≦ B < 90%)	A (90 ≦ A ≦ 100%)	A (90 ≦ A ≦ 100%)	A (90 ≦ A ≦ 100%)	B (80 ≦ B < 90%)
CC[S+]([O-])c1nc2cc(-n3nc(C)n(C(F)F)c3=O)c(Cl)cc2s1 (stereo not drawn) [Compound 115]	A (90 ≦ A ≦ 100%)	C (60 ≦ C < 80%)	B (80 ≦ B < 90%)	D (50 ≦ D < 60%)	B (80 ≦ B < 90%)	B (80 ≦ B < 90%)
CCOC(=O)C(C)[S+]([O-])c1nc2cc(-n3nc(C)n(C(F)F)c3=O)c(Br)cc2s1 (stereo not drawn) [Compound 116]	A (90 ≦ A ≦ 100%)	D (50 ≦ D < 60%)	C (60 ≦ C < 80%)	B (80 ≦ B < 90%)	B (80 ≦ B < 90%)	B (80 ≦ B < 90%)
C=CC[S+]([O-])c1nc2cc(-n3nc(C)n(C(F)F)c3=O)c(Br)cc2s1 (stereo not drawn) [Compound 117]	C (60 ≦ C < 80%)	C (60 ≦ C < 80%)	B (80 ≦ B < 90%)	B (80 ≦ B < 90%)	C (60 ≦ C < 80%)	E (E < 50%)
CCOC(=O)C(C)[S+]([O-])c1nc2cc(-n3nc(C)n(C(F)F)c3=O)c(F)cc2s1 (stereo not drawn) [Compound 118]	D (50 ≦ D < 60%)	D (50 ≦ D < 60%)	C (60 ≦ C < 80%)	B (80 ≦ B < 90%)	A (90 ≦ A ≦ 100%)	C (60 ≦ C < 80%)
Cc1nn(-c2cc3nc([S+](C)[O-])sc3cc2F)c(=O)n1C(F)F (stereo not drawn) [Compound 119]	E (E < 50%)	E (E < 50%)	C (60 ≦ C < 80%)	B (80 ≦ B < 90%)	B (80 ≦ B < 90%)	C (60 ≦ C < 80%)
CCCC[S+]([O-])c1nc2cc(-n3nc(C)n(C(F)F)c3=O)c(F)cc2s1 (stereo not drawn) [Compound 120]	A (90 ≦ A ≦ 100%)	D (50 ≦ D < 60%)	B (80 ≦ B < 90%)	B (80 ≦ B < 90%)	C (60 ≦ C < 80%)	B (80 ≦ B < 90%)
CCC[S+]([O-])c1nc2cc(-n3nc(C)n(C(F)F)c3=O)c(F)cc2s1 (stereo not drawn) [Compound 121]	C (60 ≦ C < 80%)	E (E < 50%)	C (60 ≦ C < 80%)	A (90 ≦ A ≦ 100%)	D (50 ≦ D < 60%)	D (50 ≦ D < 60%)
CCOC(=O)CSc1nc2cc(-n3nc(C(F)(F)F)n(C(F)F)c3=O)c(F)cc2s1 [Compound 122]	E (E < 50%)	C (60 ≦ C < 80%)	E (E < 50%)	E (E < 50%)	E (E < 50%)	E (E < 50%)
C=CCSc1nc2cc(-n3nc(C(F)(F)F)n(C(F)F)c3=O)c(F)cc2s1 [Compound 123]	D (50 ≦ D < 60%)	D (50 ≦ D < 60%)	B (80 ≦ B < 90%)	A (90 ≦ A ≦ 100%)	A (90 ≦ A ≦ 100%)	B (80 ≦ B < 90%)
CCOC(=O)C(C)Sc1nc2cc(-n3nc(C(F)(F)F)n(C(F)F)c3=O)c(Cl)cc2s1 (stereo not drawn) [Compound 124]	B (80 ≦ B < 90%)	D (50 ≦ D < 60%)	E (E < 50%)	B (80 ≦ B < 90%)	B (80 ≦ B < 90%)	A (90 ≦ A ≦ 100%)
CSc1nc2cc(-n3nc(C(F)(F)F)n(C(F)F)c3=O)c(Cl)cc2s1 [Compound 125]	C (60 ≦ C < 80%)	B (80 ≦ B < 90%)	B (80 ≦ B < 90%)	B (80 ≦ B < 90%)	A (90 ≦ A ≦ 100%)	C (60 ≦ C < 80%)
CCCCSc1nc2cc(-n3nc(C(F)(F)F)n(C(F)F)c3=O)c(Cl)cc2s1 [Compound 126]	A (90 ≦ A ≦ 100%)	B (80 ≦ B < 90%)	A (90 ≦ A ≦ 100%)	B (80 ≦ B < 90%)	B (80 ≦ B < 90%)	C (60 ≦ C < 80%)
CCOC(=O)CSc1nc2cc(-n3nc(C(F)(F)F)n(C(F)F)c3=O)c(Br)cc2s1 [Compound 127]	B (80 ≦ B < 90%)	C (60 ≦ C < 80%)	B (80 ≦ B < 90%)	B (80 ≦ B < 90%)	B (80 ≦ B < 90%)	D (50 ≦ D < 60%)
C=CCSc1nc2cc(-n3nc(C(F)(F)F)n(C(F)F)c3=O)c(Br)cc2s1 [Compound 128]	A (90 ≦ A ≦ 100%)	A (90 ≦ A ≦ 100%)	C (60 ≦ C < 80%)	B (80 ≦ B < 90%)	A (90 ≦ A ≦ 100%)	D (50 ≦ D < 60%)
CCCSc1nc2cc(-n3nc(C(F)(F)F)n(C(F)F)c3=O)c(Br)cc2s1 [Compound 129]	C (60 ≦ C < 80%)	A (90 ≦ A ≦ 100%)	A (90 ≦ A ≦ 100%)	A (90 ≦ A ≦ 100%)	A (90 ≦ A ≦ 100%)	C (60 ≦ C < 80%)
C#CCSc1nc2cc(-n3nc(C)n(C(F)F)c3=O)c(F)cc2s1 [Compound 130]	D (50 ≦ D < 60%)	B (80 ≦ B < 90%)	C (60 ≦ C < 80%)	B (80 ≦ B < 90%)	A (90 ≦ A ≦ 100%)	A (90 ≦ A ≦ 100%)
